The results in this text go back to patent publication US20030195246A1, “Seamless soft capsule preparations containing dihydrobenzofuran derivatives” (priority 2000, published 2003).

Molecules are shown by their SMILES.

The data set is described as follows: BO-653 stability test in different fats and oils (accelerated test, HPLC residue rate). Format: physicochemical. As to conditions: 80° C. for 17 hours. The method, then:
A test was conducted on the effect of oxygen on decomposition of BO-653 (4,6-ditert-butyl-2,2-di-n-pentyl-5-hydroxy-2,3-dihydrobenzofuran) and its stability in various fats and oils. There were prepared samples consisting of 70 mg solutions of BO-653 in different fats and oils (soybean oil (product of Wako Pure Chemicals Industries, Ltd.), olive oil (product of Wako Pure Chemicals Industries, Ltd.), MCT (ODO-C: product of The Nisshin oil Mills, Ltd.), tricaprilin (product of Wako Pure Chemicals Industries, Ltd.) and linoleic acid (product of NOF Corp.)), each in a proportion of 50 wt % in a 5 cc glass vial, as well as a sample of 35 mg BO-653 in a 5 cc glass vial. An accelerated test was conducted at 80° C. for 17 hours, in a case with sealing of the head space of each sample vial after argon substitution and a case with sealing without argon substitution, and the residue rate was determined by HPLC measurement of the BO-653 content after the test.

With `CCCCCC1(CCCCC)Cc2c(cc(C(C)(C)C)c(O)c2C(C)(C)C)O1` [BO-653, 4,6-ditert-butyl-2,2-di-n-pentyl-5-hydroxy-2,3-dihydrobenzofuran], for the setting “no argon substitution (presence of oxygen), 50 wt % in soybean oil, compared with other fats and oils”, the “stability of BO-653” value was “highest stability”. Besides, the residue rate result is, setting by setting: (no argon substitution (presence of oxygen), all of the samples) “lower with no argon substitution than with argon substitution”; (with argon substitution (absence of oxygen), any of the media, including BO-653 alone) “virtually no reduction in residue rate”.
